Results on 1 compound are retold here after patent publication US9781927B2, “Microbicidal composition” (Dow Global Technologies LLC, priority 2016, dated 2017).

The subject of assay [1] is Desulfovibrio longus ATCC 51456. Kind of assay: Biocidal efficacy and synergy of glutaraldehyde and Surf A-C against anaerobic sulfate-reducing bacteria (2 h kill, serial dilution enumeration). The assay is classed as cell-based. The settings on record: Glut part, 35° C. The procedure: (§1) Surfactants and biocides were evaluated for synergy by determining the synergy index (S.I.) of the combination. Synergy index was calculated based the concentration required to achieve a certain level of bacterial kill when the two antimicrobial compounds (A and B) alone and in combinations. The tests organisms were anaerobic sulfate-reducing bacteria (Desulfovibrio longus ATCC #51456), facultative bacteria Pseudomonas aeruginosa ATCC #10145 and Staphylococcus aureus ATCC #6538, R^2O(CH2CH(CH3)O)3(CH2CH2O)7H Surf. A R^2O(CH2CH(CH3)O)3(CH2CH2O)5H Surf. B R^2O(CH2CH(CH3)O)3(CH2CH2O)13H Surf. C where R^2 is a mixture of C8-C14 linear alkyl groups.
Inside an anaerobic chamber (Bactron anaerobic chamber), a deoxygenated sterile salt solution (3.1183 g of NaCl, 1.3082 mg of NaHCO3, 47.70 mg of KCl, 72.00 mg of CaCl2, 54.49 mg of MgSO4, 172.28 mg of Na2SO4, 43.92 mg of Na2CO3 in 1 L water) was inoculated with Desulfovibrio longus ATCC 51456 to a final bacterial concentration of 10^6 to 10^7 CFU/mL. Aliquots of this cell suspension were then treated with glutaraldehyde, and each of Surf A-C at selected active concentrations. After incubation at 35° C. for 2 hours, viable bacteria in the aliquots were enumerated using serial dilution method.
(§2) SI is calculated as follows: Ca/CA+Cb/CB=Synergy Index (“SI”)
(§3) Wherein: • Ca=Concentration of biocide A required to achieve a certain level of bacterial kill when used in combination with B • CA=Concentration of biocide A required to achieve a certain level of bacterial kill when used alone • Cb=Concentration of biocide B required to achieve a certain level of bacterial kill when used in combination with A • CB=Concentration of biocide B required to achieve a certain level of bacterial kill when used alone When the sum of Ca/CA and Cb/CB is greater than one, antagonism is indicated.

Assay [2] relates to Pseudomonas aeruginosa ATCC 10145 and Staphylococcus aureus ATCC 6538. Kind of assay: Biocidal efficacy and synergy of glutaraldehyde and Surf. B against aerobic (facultative) bacteria (2 h kill, serial dilution enumeration). The following applies: Glut part, alone (1:0) or in combination with Surf. B, 37° C., approximately 10^7 CFU/mL, 0.85% NaCl. It counts as cell-based. The procedure:
as §1, §2, §3
Sterile 0.85% NaCl solution was inoculated with approximately 10^7 CFU/mL of Pseudomonas aeruginosa ATCC 10145 and Staphylococcus aureus ATCC 6538. […]

The structures appear in SMILES notation.

For `O=CCCCC=O` [Glut, glutaraldehyde, (1,5-pentanedial) CAS No. 111-30-8], the “Concentration (active ppm) for complete bacterial kill in 2 hours, Glut” value in assay [1] (alone (1:0) or in combination with Surf C) is reported as 29.6 active ppm. Further, the “Concentration (active ppm) for 99.99% bacterial kill in 2 hours, Glut” value in assay [1] (alone (1:0) or in combination with Surf. A, 10^6 to 10^7 CFU/mL) is recorded as 13.2 active ppm. Moreover, the “Concentration (active ppm) for more than 99.999% bacterial kill in 2 hours, Glut” value in assay [1] (alone (1:0) or in combination with Surf. B) and in assay [2] was 29.6 active ppm throughout.
